Earlier results in article PMC6062831 (ACS Central Science, 2018).
Read-outs that look alike come from different tables or passages of the source.

Key:
human GUS ortholog = details: cited from earlier work
Escherichia coli GUS = details: cited from earlier work

Row | SMILES | inhibition of human GUS ortholog (human GUS ortholog) | Ki (Escherichia coli GUS; read-out: Ki against Escherichia coli GUS) | Ki (Escherichia coli GUS; read-out: Ki against E. coli GUS)
1 | O=C(O)[C@@H](O)[C@H]1OC(=O)[C@H](O)[C@H]1O [D-glucaro-1,4-lactone] | potent inhibitors | 19 µM | 
2 | O=C(O)[C@@H]1[C@@H](O)[C@H](O)[C@@]2(O)CC[C@@H]1N2 [uronic-noeurostegine] | potent inhibitors |  | 0.06 µM
